A word on the IC50: it is the concentration needed to halve the response being measured.

The target of this experiment is T1, CDK2/Cyclin E (Homo sapiens, UniProt P24941).
T1 construct: The open reading frames of CDK2 and Cyclin E were isolated; made in house; host or cells: Sf21 (Spodoptera frugiperda) insect cells, baculovirus co-infection; the GST-Rb substrate was made in E. coli BL21 (DE3) pLysS
In words: in vitro kinase Scintillation Proximity Assay, incorporation of [γ-33-P]-ATP into GST-Rb. Type of experiment: biochemical. Particulars: GST-Rb substrate, 0.2 μM ATP, 60 minutes at room temperature. On the procedure: The compounds were tested in an in vitro kinase assay in 96 well format using Scintillation Proximity Assay (SPA - obtained from Amersham) for measuring incorporation of [γ-33-P]-Adenosine Triphosphate into a test substrate (GST-Retinoblastoma protein; GST-Rb). In each well was placed the compound to be tested (diluted in DMSO and water to correct concentrations) and in control wells either roscovitine as an inhibitor control or DMSO as a positive control.
Approximately 0.2 μl of CDK2/Cyclin E partially-purified enzyme (amount dependent on enzyme activity) diluted in 25 μl incubation buffer was added to each well then 20 μl of GST-Rb/ATP/ATP33 mixture (containing 0.5 μg GST-Rb and 0.2 μM ATP and 0.14 μCi [γ-33-P]-Adenosine Triphosphate in incubation buffer), and the resulting mixture shaken gently, then incubated at room temperature for 60 minutes.
To each well was then added 150 μL stop solution containing (0.8 mg/well of Protein A-PVT SPA bead (Amersham)), 20 pM/well of Anti-Glutathione Transferase, Rabbit IgG (obtained from Molecular Probes), 61 mM EDTA and 50 mM HEPES pH 7.5 containing 0.05% sodium azide.
The plates were sealed with Topseal-S plate sealers, left for two hours then spun at 2500 rpm, 1124 xg., for 5 minutes. The plates were read on a Topcount for 30 seconds per well.
The incubation buffer used to dilute the enzyme and substrate mixes contained 50 mM HEPES pH7.5, 10 mM MnCl2, 1 mM DTT, 100 μM Sodium vanadate, 100 μM NaF, 10 mM Sodium Glycerophosphate, BSA (1 mg/ml final).
In this assay only part of the retinoblastoma protein (Science 1987 Mar. 13;235(4794):1394-1399; Lee W. H., Bookstein R., Hong F., Young L. J., Shew J. Y., Lee E. Y.) was used, fused to a GST tag. […]
The open reading frames of CDK2 and Cyclin E were isolated by reverse transcriptase-PCR using HeLa cell and activated T cell mRNA as a template and cloned into the insect expression vector pVL1393 (obtained from Invitrogen 1995 catalogue number: V1392-20). […]
`c1ccc(Nc2nccc(-c3cnc4n3CCOC4)n2)cc1` [Example 5, 2-Anilino-4-(5,6-dihydro-8H-imidazo[2,1-c][1,4]oxazin-3-yl)pyrimidine]: the IC50 was determined as 42 nM.
`c1ccc(Nc2nccc(-c3cnc4n3CCCC4)n2)cc1` [Example 2, 2-anilino-4-(5,6,7,8-tetrahydroimidazo[1,2-a]pyridin-3-yl)pyrimidine] came in with a half-inhibitory concentration (IC50) of 21 nM.
For `COCCNS(=O)(=O)c1ccc(Nc2nccc(-c3cnc4n3CCOC4)n2)cc1` [Example 9] the value was 13 nM.
